# Measurements taken from EP1285919A1, “C10 Carbonate substituted taxanes as antitumor agents” (Florida State University Research Foundation, Inc., priority 2001, dated 2003).
# Columns and labels:
# [1] = test system: SKMES Human Lung Carcinoma Xenograft; settings: Group 3: 40 mg/kg single oral bolus Day 1, 6 mice, study to Day 60
# Protocol: The compound was administered as a single bolus by the oral route in a study to investigate the efficacy of this compound against the SKMES human lung cancer xenograft.
# Female Nu/Nu mice (6-8 weeks of age; implanted with 1 mm^3 SKMES lung carcinoma fragments in the flank) were sorted into four treatment groups of six mice each. SKMES size ranges and group mean SKMES size ranges were 126-448 mg and 238-241 mg, respectively. […] Treatments were administered as a single oral bolus on Day 1, and the study was terminated on Day 60.
# (§1) The results are summarized in Table 13 and include mean days of survival (MDS), number of toxic deaths, number of survivors, number of complete or partial responses, and number with stable disease. The mean days of survival is the number of days after which a SKMES neoplasm reached a size of 2.0 g and the animal was euthanized. A complete response is obtained if the tumor is not palpable at the end of the study. A partial response is obtained if the tumor shrinks to a size smaller than its size on Day 1 of the study.
# The total response rate was 100% with four complete responses and two partial responses. The total response rate is defined as the percentage of evaluable animals (excluding deaths due to procedure or toxicity) in a group that experience complete or partial responses at the termination of the study.
# [2] = test system: Panc-1 Human Pancreatic Carcinoma; test: In vivo evaluation against Panc-1 pancreatic carcinoma xenografts; settings: for MDS (n): 1.5 g endpoint
# Protocol: In Vivo Evaluation of Antitumor Compounds Against Panc-1 Human Pancreatic Carcinoma
# (§2) Antitumor compounds were prepared in a vehicle of 5% ethanol, 5% Cremophor and 90% isotonic saline in the manner as described for Solution 1 of Example 10. Taxol (paclitaxel; Bristol Meyers Squibb) was obtained as the marketed pharmaceutical drug. The dosing volume was 0.3 ml per 20 g mouse.
# Female NCr-nude mice were implanted subcutaneously with 1 mm^3 Panc-1 pancreatic carcinoma fragments in the flank and sorted into treatment groups of six mice each. […] Dosing was initiated on Day 1. The antitumor compounds were given i.v. at an estimated maximum tolerated dose (MTD) appropriate for each agent on a qd x 1 schedule (single administration of compound). The i.v. taxol was given on the qd x 1 schedule as two split doses (one hour between) of 12 mg/kg per split dose (total dose = 24 mg/kg). Taxol was also administered at a dose of 15 mg/kg i.p. on a qd x 5 schedule. The vehicle was administered i.v. to control mice in Group 1 on the qd x 1 schedule. The study was terminated on Day 63. Treatment groups are detailed in Table 9.
# as §1, with “10” for “13”, “a” for “a SKMES”, “1.5” for “2.0”, “complete” for “complete response is obtained if the tumor is not palpable at the end of the study. A partial”, “[…]. […]” for “study.”
# [3] = test system: A375 Human Melanoma Xenografts; test: In vivo evaluation against A375 melanoma xenografts
# Protocol: In Vivo Evaluation of Antitumor Compounds Against A375 Human Melanoma Xenografts
# as §2, with “Squibb) and Taxotere (docetaxel; Rhône-Poulenc Rorer) were” for “Squibb) was”, “pharmaceutical drugs.” for “pharmaceutical drug.”
# Female NCr-nude mice were implanted subcutaneously with 1 mm^3 A375 melanoma fragments in the flank were sorted into treatment groups of six mice each, except the Taxotere treatment group which was a group of seven mice. […] Dosing was initiated on Day 1. The antitumor compounds were given i.v. at an estimated maximum tolerated dose (MTD) appropriate for each agent on a qd x 1 schedule (single administration of compound). The i.v. taxol was given on the qd x 1 schedule as two split doses (one hour between) of 12 mg/kg per split dose (total dose = 24 mg/kg). Taxol was also administered i.p. on a qd x 5 schedule at a daily dose of 18 mg/kg. Taxotere was given i.v. on a qd x 1 schedule at a dose of 70 mg/kg. The vehicle was administered i.v. to control mice in Group 1 on the qd x 1 schedule. The study was terminated on Day 60. Treatment groups are detailed in Table 7.
# as §1, with “8” for “13”, “a” for “a SKMES”, “[…]” for “tumor is not palpable at the end of the study. A partial response is obtained if the tumor”
# [4] = Group 2: 24 mg/kg i.v. qd x 1 (two split doses of 12 mg/kg), 6 mice, study to Day 63
# [5] = Group 3: 15 mg/kg i.p. qd x 5, 6 mice, study to Day 63
# [6] = Group 2: 24 mg/kg i.v. qd x 1 (two split doses of 12 mg/kg), 6 mice, study to Day 60
# [7] = Group 3: 18 mg/kg i.p. qd x 5, 6 mice, study to Day 60
# [8] = Group 4: 60 mg/kg i.v. qd x 1, 6 mice, study to Day 63
# [9] = Group 4: 72.6 mg/kg i.p. qd x 1, 6 mice, study to Day 60
compound,measurement,setting,value
CC(=O)O[C@H]1C(=O)[C@@]2(C)[C@H]([C@H](OC(=O)c3ccccc3)[C@]3(O)C[C@H](OC(=O)[C@H](O)[C@@H](NC(=O)c4ccccc4)c4ccccc4)C(C)=C1C3(C)C)[C@]1(OC(C)=O)CO[C@@H]1C[C@@H]2O [Taxol],MDS (n),"[1]; n=6, 2.0 g endpoint",13.2 ± 1.4(6) days
same,% Total Response,[1],0%
same,Complete Response,[1],0
same,Partial Response,[1],0
same,Stable Disease,[1],0
same,Survivors,[1],0
same,Toxic Deaths,[1],0
same,MDS (n),"[2]; Group 2: 24 mg/kg i.v. qd x 1 (two split doses of 12 mg/kg), 6 mice, n=4, study to Day 63",34.7 ± 3.4(4) days
same,Complete Response,[2]; [4],0
same,Mean Score,[2]; [4],2.2 ± 0.8
same,Partial Response,[2]; [4],0
same,Stable Disease,[2]; [4],1
same,Survivors,[2]; [4],1
same,Complete Response,[2]; [5],0
same,Mean Score,[2]; [5],1.2 ± 1.2
same,Partial Response,[2]; [5],1
same,Stable Disease,[2]; [5],0
same,Survivors,[2]; [5],1
same,MDS,"[2]; Taxol 24 mg/kg i.v. qd x 1, four mice, 1.5 g cut-off",34.7 days
same,Toxic Deaths,"[2]; female, NCr-nude, mouse, in vivo",1
same,Toxic Deaths,"[2]; female, NCr-nude, mouse, in vivo, ip, 15 mg/kg",4
same,Stable Disease,"[2]; number of cases, Taxol 24 mg/kg i.v. qd x 1, six mice",one
same,MDS (n),"[3]; Group 2: 24 mg/kg i.v. qd x 1 (two split doses of 12 mg/kg), 6 mice, n=4, 2.0 g endpoint, study to Day 60",18.1 ± 0.6 (4) days
same,Complete Response,[3]; [6],0
same,Mean Score,[3]; [6],0.8 ± 0.3
same,Partial Response,[3]; [6],0
same,Stable Disease,[3]; [6],0
same,Survivors,[3]; [6],0
same,Toxic Deaths,[3]; [6],2
same,Complete Response,[3]; [7],0
same,Mean Score,[3]; [7],0 ± 0
same,Partial Response,[3]; [7],0
same,Stable Disease,[3]; [7],0
same,Survivors,[3]; [7],0
same,Toxic Deaths,[3]; [7],6
same,animals died of toxicity,"[3]; Taxol 18 mg/kg i.p. qd x 5, six mice",six
same,survival extension compared to Group 1 controls,"[3]; i.v. qd x 1, Taxol 24 mg/kg, Taxotere 70 mg/kg",26%
same,MDS,"[3]; i.v. qd x 1, Taxol 24 mg/kg, Taxotere 70 mg/kg, 2.0 g cut-off",18.1 days
CCOC(=O)O[C@H]1C(=O)[C@@]2(C)[C@H]([C@H](OC(=O)c3ccccc3)[C@]3(O)C[C@H](OC(=O)[C@H](O)[C@H](C=C(C)C)NC(=O)OC(C)(C)C)C(C)=C1C3(C)C)[C@]1(OC(C)=O)CO[C@@H]1C[C@@H]2O [Compound 1781],overall response rate,[2]; 1781 i.v. qd x 1 at estimated MTD,66.7%
same,MDS (n),"[2]; Group 4: 60 mg/kg i.v. qd x 1, 6 mice, n=2, study to Day 63",59.3 ± 2.9(2) days
same,Complete Response,[2]; [8],0
same,Mean Score,[2]; [8],6.7 ± 1.2
same,Partial Response,[2]; [8],4
same,Stable Disease,[2]; [8],0
same,Survivors,[2]; [8],4
same,Toxic Deaths,[2]; [8],0
same,Toxic Deaths,"[2]; i.v. qd x 1, Taxol 24 mg/kg, 1781 at estimated MTD, six mice per group",no toxic deaths
same,mean group weight loss,"[2]; mouse, in vivo, iv",minimal
same,tolerability,"[2]; mouse, in vivo, iv",well-tolerated
same,Toxic Deaths,"[3]; 1781 i.v. qd x 1 at estimated MTD, six mice",five
same,Complete Response,[3]; [9],0
same,Mean Score,[3]; [9],0.5 ± 0.5
same,Partial Response,[3]; [9],0
same,Stable Disease,[3]; [9],0
same,Survivors,[3]; [9],0
same,Toxic Deaths,[3]; [9],5
same,mean group weight losses,"[3]; mouse, in vivo, iv",20-30%
